Assay results: patent US6821980B1, “Substituted 5-benzyl-2,4-diaminopyrimidines” (Basilea Pharmaceutica AG, priority 1999, dated 2004)
Converted amounts (≈) assume the structure as drawn. Like-named read-outs stand apart in the source and are kept apart here.

Legend:
[1] = target: purified DHFR of strain 157/4696 of Staphylococcus aureus (Staphylococcus aureus, UniProt P13955); experiment: biochemical
[2] = test system: Staphylococcus aureus 101; experiment: MIC against Staphylococcus aureus 101; assay type: cell-based; conditions: Table 2, Staphylococcus aureus 101, MRSA- and trimethoprim-resistant, clinical isolate; for MIC: read-out: MIC Sa101
[3] = test system: Streptococcus pneumoniae 1/1; experiment: MIC against Streptococcus pneumoniae 1/1; assay type: cell-based; conditions: Table 2, Streptococcus pneumoniae 1/1, trimethoprim- and penicillin-resistant, serotype 6, clinical isolate; for MIC: read-out: MIC Sp1/1
[4] = target: T1, purified DHFR of strain Sp1/1 of Streptococcus pneumoniae (Streptococcus pneumoniae serotype 4, UniProt Q54801); assay type: biochemical; conditions: Table 2; IC50 against purified DHFR of strain Sp1/1
T1 sequence (Q54801 1-168 I100L): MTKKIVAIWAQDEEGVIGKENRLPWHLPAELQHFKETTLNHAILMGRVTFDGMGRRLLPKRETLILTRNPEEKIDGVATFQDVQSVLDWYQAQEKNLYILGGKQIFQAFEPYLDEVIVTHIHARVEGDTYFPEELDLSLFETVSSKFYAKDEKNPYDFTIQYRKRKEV

[5] = Table 2, IC50 against purified DHFR of strain 157/4696 (highly trimethoprim-resistant; clinical isolate), read-out: DHFR Sa1

Chain of purified DHFR of strain 157/4696 of Staphylococcus aureus (P13955 whole entry): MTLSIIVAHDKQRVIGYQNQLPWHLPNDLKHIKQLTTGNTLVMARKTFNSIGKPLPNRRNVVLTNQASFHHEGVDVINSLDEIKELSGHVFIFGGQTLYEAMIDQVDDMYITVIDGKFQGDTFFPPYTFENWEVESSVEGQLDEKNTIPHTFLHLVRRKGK

Structure (SMILES) | IC50 [1] | MIC [2] | MIC [3] | IC50 [4] | IC50 [1, 5] | MIC Sa101 [2] | MIC Sp1/1 [3]
CCOc1cc(Cc2cnc(N)nc2N)cc(OS(=O)(=O)CC(C)(C)OC)c1-c1cccc(N)c1 [Example 39-a, (2-Methoxy-2-methyl-propane)-1-sulphonic acid 3′-amino-4-(2,4-diamino-pyrimidin-5-ylmethyl)-6-ethoxy-biphenyl-2-yl ester] | 390 nM | 4 µg/mL (≈ 7.97 µM) | 1 µg/mL (≈ 1.99 µM) | 4.2 nM |  |  | 
CCOc1cc(Cc2cnc(N)nc2N)cc(OCC)c1-c1cccnc1 [Example 02-p, 5-(3,5-Diethoxy-4-pyridin-3-yl-benzyl)-pyrimidine-2,4-diamine] | 2200 nM | 8 µg/mL (≈ 21.9 µM) | 4 µg/mL (≈ 10.9 µM) | 100 nM |  |  | 
CCOc1cc(Cc2cnc(N)nc2N)cc(OS(C)(=O)=O)c1-c1ccc(O)cc1 [Example 15-a, Methanesulphonic acid 4-(2,4-diamino-pyrimidin-5-ylmethyl)-6-ethoxy-4′-hydroxy-biphenyl-2-yl ester] | 550 nM | 8 µg/mL (≈ 18.6 µM) | 4 µg/mL (≈ 9.29 µM) | 32 nM |  |  | 
CCOc1cc(Cc2cnc(N)nc2N)cc(OS(=O)(=O)N2CCCC2)c1-c1ccc(NC)cc1 [Example 26-e, Pyrrolidine-1-sulphonic acid 4-(2,4-diamino-pyrimidin-5-ylmethyl)-6-ethoxy-4′-methylamino-biphenyl-2-yl ester] | 130 nM | 1 µg/mL (≈ 2.01 µM) | 1 µg/mL (≈ 2.01 µM) | 2.3 nM |  |  | 
CCOc1cc(Cc2cnc(N)nc2N)cc(OS(C)(=O)=O)c1-c1ccc2c(c1)OCO2 [Example 17-a, Methanesulphonic acid 2-benzof[1,3]dioxol-5-yl-5-(2,4-diamino-Ryrimidin-5-ylmethyl)-3-ethoxy-phenyl ester] | 600 nM | 4 µg/mL (≈ 8.72 µM) | 2 µg/mL (≈ 4.36 µM) | 38 nM |  |  | 
CCOc1cc(Cc2cnc(N)nc2N)cc(OS(=O)(=O)c2ccc(OC)c(F)c2)c1-c1ccc(O)cc1 [Example 15-j, 3-Fluoro-4-methoxy-benzenesulphonic acid 4-(2,4-diamino-pyrimidin-5-ylmethyl)-6-ethoxy-4′-hydroxy-biphenyl-2-yl ester] | 550 nM | 8 µg/mL (≈ 14.8 µM) | 1 µg/mL (≈ 1.85 µM) | 1.7 nM |  |  | 
CCOc1cc(Cc2cnc(N)nc2N)cc(OS(=O)(=O)N2CCOCC2)c1-c1cccc(N)c1 [Example 19-e, Morpholine-4-sulphonic acid 3′-amino-4-(2,4-diamino-pyrimidin-5-ylmethyl)-6-ethoxy-biphenyl-2-yl ester] | 38 nM | 2 µg/mL (≈ 4 µM) | 1 µg/mL (≈ 2 µM) | 3.9 nM |  |  | 
CCOc1cc(Cc2cnc(N)nc2N)cc(OCC)c1-c1ccc(OC)c(OC)c1 [Example 02-l, 5-(2,6-Diethoxy-3′,4′-dimethoxy-biphenyl-4-ylmethy)-pyrimidine-2,4-diamine] | 8000 nM | 8 µg/mL (≈ 18.8 µM) | 4 µg/mL (≈ 9.42 µM) | 160 nM |  |  | 
CCCS(=O)(=O)Oc1cc(Cc2cnc(N)nc2N)cc(OCC)c1-c1ccc(OC)c(N)c1 [Example 32-d, Propane-1-sulphonic acid 3′-amino-4-(2,4-diamino-pyrimidin-5-ylmethyl)-6-ethoxy-4′-methoxy-4-ylmethyl-biphenyl-2-yl ester] |  |  |  | 5.9 nM | 140 nM | 2 µg/mL (≈ 4.1 µM) | 1 µg/mL (≈ 2.05 µM)
CCOc1cc(Cc2cnc(N)nc2N)cc(OCC)c1-c1cccc(OC)c1 [Example 05-a, 5-(2,6-Diethoxy-3′-methoxy-biphenyl-4-ylmethyl)-pyrimidine-2,4-diamine] | 6100 nM | 8 µg/mL (≈ 20.3 µM) | 2 µg/mL (≈ 5.07 µM) | 46 nM |  |  | 
CCOc1cc(Cc2cnc(N)nc2N)cc(OS(=O)(=O)N(C)C)c1-c1ccc(O)cc1 [Example 20-a, Dimethyl-sulphamic acid 4-(2,4-diamino-pyrimidin-5-ylmethyl)-6-ethoxy-4′-hydroxy-biphenyl-2-yl ester] | 150 nM | 2 µg/mL (≈ 4.35 µM) | 1 µg/mL (≈ 2.18 µM) | 7.5 nM |  |  | 
CCOc1cc(Cc2cnc(N)nc2N)cc(OS(=O)(=O)CC(C)C)c1-c1ccc(NCCO)cc1 [Example 36-e, 2-Methyl-propane-1-sulphonic acid 4-(2,4-diamino-pyrimidin-5-ylmethyl)-6-ethoxy-4′-(2-hydroxy-ethylamino)-biphenyl-2-yl ester] | 250 nM | 4 µg/mL (≈ 7.76 µM) | 0.5 µg/mL (≈ 0.97 µM) | 2.1 nM |  |  | 
CCOc1cc(Cc2cnc(N)nc2N)cc(OS(=O)(=O)c2cccs2)c1-c1cccc(N)c1 [Example 14-f, Thiophene-2-sulphonic acid 3′-amino-4-(2,4-diamino-pyrimidin-5-ylmethyl)-6-ethoxy-biphenyl-2-yl ester] | 320 nM | 4 µg/mL (≈ 8.04 µM) | 1 µg/mL (≈ 2.01 µM) | 1.8 nM |  |  | 
CCOc1cc(Cc2cnc(N)nc2N)cc(OS(=O)(=O)C(C)C)c1-c1ccc(CN2CCOCC2)c(N)c1 [Example 33-d, Propane-2-sulphonic acid 3′-amino-4-(2,4-diamino-pyrimidin-5-ylmethyl)-6-ethoxy-4′-morpholinemethyl-4-ylmethyl-biphenyl-2-yl ester] |  |  |  | 9.1 nM | 39 nM | 2 µg/mL (≈ 3.59 µM) | 2 µg/mL (≈ 3.59 µM)
CCCS(=O)(=O)Oc1cc(Cc2cnc(N)nc2N)cc(OCC)c1-c1cc(N)cc(F)c1 [Example 32-f, Propane-1-sulphonic acid 3′-amino-4-(2,4-diamino-pyrimidin-5-ylmethyl)-6-ethoxy-5′-fluoro-4-ylmethyl-biphenyl-2-yl ester] |  |  |  | 30 nM | 420 nM | 4 µg/mL (≈ 8.41 µM) | 1 µg/mL (≈ 2.1 µM)
CCOc1cc(Cc2cnc(N)nc2N)cc(OCC)c1-c1ccc(OC)c(N)c1 [Example 04-i, 5-(3′-Amino-2,6-diethoxy-4′-methoxy-biphenyl-4-ylmethyl)-pyrimidine-2,4-diamine] | 1200 nM | 8 µg/mL (≈ 19.5 µM) | 4 µg/mL (≈ 9.77 µM) | 43 nM |  |  | 
CCCS(=O)(=O)Oc1cc(Cc2cnc(N)nc2N)cc(OCC)c1-c1ccc(CN(C)C)c(N)c1 [Example 32-g, Propane-1-sulphonic acid 3′-amino-4-(2,4-diamino-pyrimidin-5-ylmethyl)-6-ethoxy-4′-dimethylaminomethyl-4-ylmethyl-biphenyl-2-yl ester] |  |  |  | 75 nM | 68 nM | 8 µg/mL (≈ 15.5 µM) | 4 µg/mL (≈ 7.77 µM)
CCOc1cc(Cc2cnc(N)nc2N)cc(OS(=O)(=O)CC(C)(C)OC)c1-c1ccc(CN2CCOCC2)c(N)c1 [Example 39-d, (2-Methoxy-2-methyl-propane)-1-sulphonic acid 3′-amino-4-(2,4-diamino-pyrimidin-5-ylmethyl)-6-ethoxy-4′-morpholinemethyl-biphenyl-2-yl ester] |  |  |  | 2.6 nM | 410 nM | 8 µg/mL (≈ 13.3 µM) | 2 µg/mL (≈ 3.33 µM)
CCOc1cc(Cc2cnc(N)nc2N)cc(OS(=O)(=O)N2CCCCC2)c1-c1cccc(N)c1 [Example 19-b, Piperidine-1-sulphonic acid 3′-amino-4-(2,4-diamino-pyrimidin-5-ylmethyl)-6-ethoxy-biphenyl-2-yl ester] | 130 nM | 1 µg/mL (≈ 2.01 µM) | 0.5 µg/mL (≈ 1 µM) | 2.4 nM |  |  | 
